Reference: patent US20250066286A1, “COMPOSITIONS OF (Z)-ENDOXIFEN AND METHODS OF ENRICHMENT THEREOF” (Atossa Therapeutics, Inc., priority 2022, published 2025)
Values after ≈ are worked out from the molar mass of the structure shown. Like-named read-outs stand apart in the source and are kept apart here.

Test: Solubility testing of (Z)-endoxifen in single solvents
Format: physicochemical
Conditions: for solubility at 15 min: 25 °C, room temperature; for solubility at 15 min / solubility: thermodynamic from solid
Protocol: To test the solubility of (Z)-endoxifen in varying conditions, 10 mg of (Z)-endoxifen was added to a stoppered tube, and 0.01 ml of the selected solvent was added (1000 mg/ml solution). The tube was shaken vigorously for 1 minute and then incubated at a constant temperature of 25.0° C. for 15 minutes. If the solid was not completed dissolved, the tube was shaken again and placed at the constant temperature of 25.0° C. for another 15 minutes. If the solid was completely dissolved at this step, it was considered to be very soluble in the selected solvent system. If the solid was not dissolved by this step, another 0.09 ml was added (yielding a 100 mg/ml solution) and an attempt to further dissolve the solid was made by the same steps of shaking and incubating twice over as described previously. If the solid was completely dissolved at this step, it was considered freely soluble. If the solid was not dissolved by this step another 0.2 ml was added (yielding a 33.3 mg/ml solution) and an attempt to further dissolve the solid was made by the same steps of shaking and incubating twice over as described previously. If the solid was completely dissolved at this step, it was considered soluble. If the solid was not dissolved by this step another, 0.7 ml was added (yielding a 10 mg/ml solution) and an attempt to further dissolve the solid was made by the same steps of shaking and incubating twice over as described previously. If the solid was completely dissolved at this step, it was considered sparingly soluble. If the solid was not dissolved by this step the sample was considered to be slightly soluble or very slightly soluble and the solution was heated until the boiling point of the solvent system (max 100° C.) under stirring with a rate of 0.5° C. per minute temperature ramp rate to verify the solubility at high temperatures. The hot solution was after cooled to room temperature with a cooling rate of 0.5° C. per minute to verify if the sample had precipitated after up to 18 hours under magnetic stirring. The same procedure was also used for the solvent mixture solubility tests. The concentrations investigated for the solvent mixture stability were 40 mg/ml and 100 mg/ml. Some solutions in the following example were precipitated by cooling of the solution from a temperature between 50-100° C. to between 10-25° C. at a rate ranging from −0.2 to −0.5° C./minute resulting in a precipitate.

[1] = solvent butyl acetate, 100 mg/mL
[2] = solvent ethyl acetate, 100 mg/mL
[3] = solvent methyl isobutyl ketone (4-methyl-2-pentanone), 100 mg/mL
[4] = solvent methyl isobutyl ketone (4-methyl-2-pentanone), 200 mg/mL

CC/C(=C(\c1ccc(O)cc1)c1ccc(OCCNC)cc1)c1ccccc1 [(Z)-endoxifen, (Z)-4-(1-(4-(2-(methylamino)ethoxy)phenyl)-2-phenylbut-1-enyl)phenol]
Solubility HT (10 mg/mL): Clear point (solvent butyl acetate, 10 mg/mL): 50 °C | Solubility HT (10 mg/mL): Sol. HT (solvent butyl acetate, 10 mg/mL, high temperature): YES | Solubility HT (20 mg/mL): Clear point (solvent butyl acetate, 20 mg/mL): 56.8 °C | Solubility HT (20 mg/mL): Sol. HT (solvent butyl acetate, 20 mg/mL, high temperature): YES | Solubility HT (100 mg/mL): Clear point [1]: 94.5 °C | Solubility HT (100 mg/mL): Cloudy point [1]: 25 °C | Solubility HT (100 mg/mL): Sol. HT (solvent butyl acetate, 100 mg/mL, high temperature): YES | Solubility HT (100 mg/mL): Re-PPT (solvent butyl acetate, 100 mg/mL, on cooling): YES | Solubility HT (10 mg/mL): Clear point (solvent ethanol, 10 mg/mL): 34 °C | Solubility HT (10 mg/mL): Sol. HT (solvent ethanol, 10 mg/mL, high temperature): YES | Solubility HT (20 mg/mL): Clear point (solvent ethanol, 20 mg/mL): 34 °C | Solubility HT (20 mg/mL): Sol. HT (solvent ethanol, 20 mg/mL, high temperature): YES | Solubility HT (20 mg/mL): Re-PPT (solvent ethanol, 20 mg/mL, on cooling): YES | Solubility HT (100 mg/mL): Clear point (solvent ethanol, 100 mg/mL): 66 °C | Solubility HT (100 mg/mL): Cloudy point (solvent ethanol, 100 mg/mL): 39.7 °C | Solubility HT (100 mg/mL): Sol. HT (solvent ethanol, 100 mg/mL, high temperature): YES | Solubility HT (100 mg/mL): Re-PPT (solvent ethanol, 100 mg/mL, on cooling): YES | Solubility HT (10 mg/mL): Clear point (solvent ethyl acetate, 10 mg/mL): 38 °C | Solubility HT (10 mg/mL): Sol. HT (solvent ethyl acetate, 10 mg/mL, high temperature): YES | Solubility HT (20 mg/mL): Clear point (solvent ethyl acetate, 20 mg/mL): 49.2 °C | Solubility HT (20 mg/mL): Sol. HT (solvent ethyl acetate, 20 mg/mL, high temperature): YES | Solubility HT (100 mg/mL): Clear point [2]: 74.4 °C | Solubility HT (100 mg/mL): Cloudy point [2]: 54.2 °C | Solubility HT (100 mg/mL): Sol. HT (solvent ethyl acetate, 100 mg/mL, high temperature): YES | Solubility HT (100 mg/mL): Re-PPT (solvent ethyl acetate, 100 mg/mL, on cooling): YES | Solubility HT (10 mg/mL): Clear point (solvent methyl isobutyl ketone (4-methyl-2-pentanone), 10 mg/mL): 44 °C | Solubility HT (10 mg/mL): Sol. HT (solvent methyl isobutyl ketone (4-methyl-2-pentanone), 10 mg/mL, high temperature): YES | Solubility HT (20 mg/mL): Clear point (solvent methyl isobutyl ketone (4-methyl-2-pentanone), 20 mg/mL): 49.3 °C | Solubility HT (20 mg/mL): Sol. HT (solvent methyl isobutyl ketone (4-methyl-2-pentanone), 20 mg/mL, high temperature): YES | Solubility HT (100 mg/mL): Clear point [3]: 74.8 °C | Solubility HT (100 mg/mL): Re-PPT after 18 hours at −20° C. [3]: YES | Solubility HT (100 mg/mL): Sol. HT (solvent methyl isobutyl ketone (4-methyl-2-pentanone), 100 mg/mL, high temperature): YES | Solubility HT (200 mg/mL): Clear Point [4]: 84 °C | Solubility HT (200 mg/mL): Cloudy point [4]: 48.5 °C | Solubility HT (200 mg/mL): Sol. HT (solvent methyl isobutyl ketone (4-methyl-2-pentanone), 200 mg/mL, high temperature): YES | Solubility HT (200 mg/mL): Re-PPT (solvent methyl isobutyl ketone (4-methyl-2-pentanone), 200 mg/mL, on cooling): YES | Solubility HT (10 mg/mL): Clear point (solvent toluene, 10 mg/mL): 66 °C | Solubility HT (10 mg/mL): Sol. HT (solvent toluene, 10 mg/mL, high temperature): YES | Solubility HT (20 mg/mL): Clear point (solvent toluene, 20 mg/mL): 77.8 °C | Solubility HT (20 mg/mL): Sol. HT (solvent toluene, 20 mg/mL, high temperature): YES | Solubility HT (100 mg/mL): Clear point (solvent toluene, 100 mg/mL): 96.6 °C | Solubility HT (100 mg/mL): Cloudy point (solvent toluene, 100 mg/mL): 25 °C | Solubility HT (100 mg/mL): Sol. HT (solvent toluene, 100 mg/mL, high temperature): YES | Solubility HT (100 mg/mL): Re-PPT (solvent toluene, 100 mg/mL, on cooling): YES | solubility at 15 min (t-butyl methyl ether, organic solvent or mixture, t-butyl methyl ether, read-out: Solubility): < 10000 µg/mL | solubility (t-butyl methyl ether, organic solvent or mixture, t-butyl methyl ether, high temperature, read-out: Solubility): < 10000 µg/mL | solubility at 15 min (tetrahydrofuran, organic solvent or mixture, solvent tetrahydrofuran, read-out: Solubility at RT): 111000 to 125000 µg/mL (≈ 297 to 335 mM) | solubility at 15 min (toluene, organic solvent or mixture, solvent toluene, read-out: Solubility at RT): 10000 µg/mL (≈ 26.8 mM) | solubility at 15 min (toluene, organic solvent or mixture, toluene, read-out: Solubility): 10000 µg/mL (≈ 26.8 mM) | solubility (toluene, organic solvent or mixture, toluene, high temperature, read-out: Solubility): 20000 to 100000 µg/mL (≈ 53.5 to 268 mM) | solubility at 15 min (water, water, solvent water, read-out: Solubility at RT): < 10000 µg/mL | solubility at 15 min (water, water, water, read-out: Solubility): < 10000 µg/mL | solubility (water, 100 °C, water, solvent water, 10 mg/mL, high temperature, read-out: Solubility HT (10 mg/mL): Sol. HT): < 10000 µg/mL | solubility (water, 100 °C, water, water, high temperature, read-out: Solubility): < 10000 µg/mL
